Measurements as given in patent publication US10123993B2, “Cyclic ureas as inhibitors of rock” (BRISTOL-MYERS SQUIBB COMPANY, priority 2015, dated 2018).
Counter-ions that a name gives are not always drawn.

Target: ROCK2 (Homo sapiens, UniProt O75116)
Test: ROCK2 kinase inhibition assay (Caliper LABCHIP, FITC peptide substrate)
Type: biochemical
Conditions: 5 μM ATP, 1.5 μM peptide substrate; value ranges
In short: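 Dose-response curves gave IC50 from inhibition of peptide phosphorylation, measured by LabChip separation after EDTA stop. Reactions used 1.5 μM FITC-labelled peptide, 5 μM ATP, 20 mM HEPES pH 7.5 with MgCl2, Brij-35, DTT, and under 2% DMSO.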

Chain of ROCK2 (O75116 whole entry, species assumed): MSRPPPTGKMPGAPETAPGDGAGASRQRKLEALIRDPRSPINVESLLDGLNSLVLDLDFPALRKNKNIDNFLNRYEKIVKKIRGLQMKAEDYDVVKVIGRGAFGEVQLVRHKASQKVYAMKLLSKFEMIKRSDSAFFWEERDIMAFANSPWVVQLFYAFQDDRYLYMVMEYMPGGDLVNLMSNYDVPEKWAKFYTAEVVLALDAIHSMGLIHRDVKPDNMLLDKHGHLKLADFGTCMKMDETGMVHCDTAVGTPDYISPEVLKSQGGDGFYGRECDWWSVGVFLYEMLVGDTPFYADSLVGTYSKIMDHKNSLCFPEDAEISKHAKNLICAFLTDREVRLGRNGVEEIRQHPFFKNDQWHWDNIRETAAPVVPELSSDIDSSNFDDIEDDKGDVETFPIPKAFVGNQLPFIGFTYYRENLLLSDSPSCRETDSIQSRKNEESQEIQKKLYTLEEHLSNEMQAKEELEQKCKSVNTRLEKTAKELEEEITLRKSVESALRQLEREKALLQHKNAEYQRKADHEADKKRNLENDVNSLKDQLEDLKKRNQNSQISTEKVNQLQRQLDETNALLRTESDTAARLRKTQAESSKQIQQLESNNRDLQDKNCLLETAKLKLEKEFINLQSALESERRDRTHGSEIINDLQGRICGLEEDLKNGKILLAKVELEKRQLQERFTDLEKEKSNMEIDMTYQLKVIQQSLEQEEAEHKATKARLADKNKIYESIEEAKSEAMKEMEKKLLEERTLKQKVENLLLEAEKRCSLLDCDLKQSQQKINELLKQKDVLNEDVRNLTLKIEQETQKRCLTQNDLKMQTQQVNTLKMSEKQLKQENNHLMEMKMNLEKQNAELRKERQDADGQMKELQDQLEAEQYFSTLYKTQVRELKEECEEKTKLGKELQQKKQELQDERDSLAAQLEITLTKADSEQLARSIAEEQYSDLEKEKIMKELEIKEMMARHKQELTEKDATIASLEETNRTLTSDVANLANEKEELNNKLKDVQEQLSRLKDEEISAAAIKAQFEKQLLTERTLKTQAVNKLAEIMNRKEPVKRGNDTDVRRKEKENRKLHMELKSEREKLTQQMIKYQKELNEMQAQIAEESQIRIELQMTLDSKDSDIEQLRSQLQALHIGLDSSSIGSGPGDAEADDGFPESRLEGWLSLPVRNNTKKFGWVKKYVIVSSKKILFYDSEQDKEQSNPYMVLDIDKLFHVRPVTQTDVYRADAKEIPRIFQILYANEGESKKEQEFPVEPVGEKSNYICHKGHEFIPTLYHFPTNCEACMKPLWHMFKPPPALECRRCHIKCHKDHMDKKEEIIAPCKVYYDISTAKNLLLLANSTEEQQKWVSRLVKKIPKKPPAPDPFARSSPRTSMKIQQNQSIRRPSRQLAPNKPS

IC50	SMILES
200 to 2000 nM	COc1cc(F)cc(C(C)N2CCN(c3ccc(-c4cn[nH]c4)cc3)C2=O)c1 (single isomer, unassigned) [Example 198, 1-(4-(1H-pyrazol-4-yl)-phenyl)-3-(1-(3-fluoro-5-methoxy-phenyl)ethyl) imidazolidin-2-one]
20.1 to 200 nM	COc1cccc(C(C)N2CCN(c3ccc(-c4cn[nH]c4)c(OC)n3)C2=O)c1 (single isomer, unassigned) [Example 220, 1-(6-methoxy-5-(1H-pyrazol-4-yl)pyridin-2-yl)-3-(1-(3-methoxyphenyl)ethyl)imidazolidin-2-one]
< 2 nM	CCC1CN(c2ccc(-c3cn[nH]c3)cc2)C(=O)N1Cc1cc(F)cc(OC)c1 (stereo not shown) [Example 176, 1-(4-(1H-pyrazol-4-yl)phenyl)-4-ethyl-3-(3-fluoro-5-methoxy-benzyl) imidazolidin-2-one]
< 2 nM	COc1cccc(CN2CCN(c3ccc(-c4cn[nH]c4)c(OC)n3)C2=O)c1 [Example 466, 1-(6-methoxy-5-(1H-pyrazol-4-yl)pyridin-2-yl)-3-(3-methoxybenzyl)imidazolidin-2-one]
< 2 nM	COc1cccc(CN2C(=O)N(c3ccc(-c4cn[nH]c4)cc3)CC2CO)c1 (racemic) [Example 37, 1-(4-(1H-Pyrazol-4-yl)phenyl)-4-(hydroxymethyl)-3-(3-methoxybenzyl)imidazolidin-2-one]
20.1 to 200 nM	CCOc1cc(N2CCN(Cc3cccc(OC)c3)C2=O)ncc1-c1cn[nH]c1 [Example 473, 1-(4-ethoxy-5-(1H-pyrazol-4-yl)pyridin-2-yl)-3-(3-methoxybenzyl)imidazolidin-2-one]
2.1 to 20 nM	COc1cc(F)cc(CN2CCN(c3ccc(-c4cn[nH]c4)c(C)n3)C2=O)c1 [Example 178, 1-(3-fluoro-5-methoxy-benzyl)-3-(6-methyl-5-(1H-pyrazol-4-yl)pyridin-2-yl)-imidazolidin-2-one]
200 to 2000 nM	CCc1nc(-n2ccn(C(C)c3cc(F)cc(OC)c3)c2=O)ccc1-c1cn[nH]c1 (single isomer, unassigned) [Example 363, 1-(6-ethyl-5-(1H-pyrazol-4-yl)pyridin-2-yl)-3-(1-(3-fluoro-5-methoxyphenyl)ethyl)-1H-imidazol-2(3H)-one]
20.1 to 200 nM	O=c1n(Cc2ccc(F)cc2)ccn1-c1ccc(-c2cn[nH]c2)cc1 [Example 67, 1-(4-(1H-pyrazol-4-yl)phenyl)-3-(4-fluorobenzyl)-1H-imidazol-2(3H)-one]
20.1 to 200 nM	COc1cccc(CN2CCN(c3ccc(-c4cn[nH]c4)cc3)C2=O)c1F [Example 116, 1-(4-(1H-Pyrazol-4-yl)phenyl)-3-(2-fluoro-3-methoxybenzyl)imidazolidin-2-one]
200 to 2000 nM	O=C1CN(Cc2cc(F)ccc2F)C(=O)N1c1ccc(-c2cn[nH]c2)cc1 [Example 83, 3-(4-(1H-pyrazol-4-yl)phenyl)-1-(2,5-difluorobenzyl)imidazolidine-2,4-dione]
20.1 to 200 nM	CCc1nc(N2CCN(C(CO)c3cccc(OC)c3)C2=O)ccc1-c1cn[nH]c1 (single isomer, unassigned) [Example 158, 1-(6-ethyl-5-(1H-pyrazol-4-yl)pyridin-2-yl)-3-(2-hydroxy-1-(3-methoxy-phenyl)ethyl) imidazolidin-2-one]
20.1 to 200 nM	COc1cccc(C(C)(CO)N2CCN(c3ccc(-c4cn[nH]c4)cc3)C2=O)c1 (single isomer, unassigned) [Example 286, 1-(4-(1H-Pyrazol-4-yl)phenyl)-3-(1-hydroxy-2-(3-methoxyphenyl)propan-2-yl)imidazolidin-2-one]
2.1 to 20 nM	CCc1cc(N2CCN(C(CO)c3cccc(OC)c3)C2=O)ccc1-c1cn[nH]c1 (single isomer, unassigned) [Example 166, 1-(3-ethyl-4-(1H-pyrazol-4-yl)phenyl)-3-(2-hydroxy-1-(3-methoxy-phenyl)ethyl) imidazolidin-2-one]
200 to 2000 nM	CCOc1cccc(C(C)n2ccn(-c3ccc(-c4cn[nH]c4)cc3)c2=O)c1 (single isomer, unassigned) [Example 368, 1-(4-(1H-pyrazol-4-yl)phenyl)-3-(1-(3-ethoxyphenyl)ethyl)-1H-imidazol-2(3H)-one]
20.1 to 200 nM	COc1cccc(CN2CCN(c3cc(C)c(-c4cn[nH]c4)cn3)C2=O)c1 [Example 465, 1-(3-methoxybenzyl)-3-(4-methyl-5-(1H-pyrazol-4-yl)pyridin-2-yl)imidazolidin-2-one]
2.1 to 20 nM	COc1cc(F)cc(CN2C(=O)CN(c3ccc(-c4cn[nH]c4)c(OC)c3)C2=O)c1 [Example 101, 3-(3-fluoro-5-methoxybenzyl)-1-(3-methoxy-4-(1H-pyrazol-4-yl)phenyl) imidazolidine-2,4-dione]
< 2 nM	COc1cccc(CN2C(=O)N(c3ccc(-c4cn[nH]c4)c(OC)c3)CC2CO)c1 (stereo not shown) [Example 40, 4-(Hydroxymethyl)-1-(3-methoxy-4-(1H-pyrazol-4-yl)phenyl)-3-(3-methoxybenzyl)imidazolidin-2-one]
20.1 to 200 nM	CCc1cc(-n2ccn(Cc3cc(F)cc(OC)c3)c2=O)ccc1-c1cn[nH]c1 [Example 454, 1-(3-ethyl-4-(1H-pyrazol-4-yl)phenyl)-3-(3-fluoro-5-methoxybenzyl)-1H-imidazol-2(3H)-one]

IC50	SMILES
2.1 to 20 nM	Cc1c(F)cccc1Cn1ccn(-c2ccc(-c3cn[nH]c3)cc2)c1=O [Example 402, 1-(4-(1H-pyrazol-4-yl)phenyl)-3-(3-fluoro-2-methylbenzyl)-1H-imidazol-2(3H)-one]
2.1 to 20 nM	COc1nc(N2CCN(Cc3cc(F)cc(OCC4CC4)c3)C2=O)ccc1-c1cn[nH]c1 [Example 224, 1-(3-(cyclopropylmethoxy)-5-fluorobenzyl)-3-(6-methoxy-5-(1H-pyrazol-4-yl)pyridin-2-yl)imidazolidin-2-one]
20.1 to 200 nM	COc1cc(F)cc(CN2CCN(c3ccc(-c4cn[nH]c4)c(C(F)(F)F)c3)C2=O)c1 [Example 276, 1-(4-(1H-pyrazol-4-yl)-3-(trifluoromethyl)phenyl)-3-(3-fluoro-5-methoxybenzyl)imidazolidin-2-one]
2.1 to 20 nM	COc1cccc(CN2CC(CO)N(c3ccc(-c4cn[nH]c4)cc3)C2=O)c1 (single isomer, unassigned; (+)) [Example 48, (+)-3-(4-(1H-Pyrazol-4-yl)phenyl)-4-(hydroxymethyl)-1-(3-methoxybenzyl)imidazolidin-2-one]
200 to 2000 nM	COc1cccc(C(CO)n2ccn(-c3ccc(-c4cn[nH]c4)cc3)c2=O)c1 (single isomer, unassigned) [Example 323, 1-(4-(1H-Pyrazol-4-yl)phenyl)-3-(2-hydroxy-1-(3-methoxyphenyl)ethyl)-1H-imidazol-2(3H)-one]
20.1 to 200 nM	COc1cc(F)cc(CN2CC(=O)N(c3ccc(-c4cn[nH]c4)c(OC)c3)C2=O)c1 [Example 94, 1-(3-fluoro-5-methoxybenzyl)-3-(3-methoxy-4-(1H-pyrazol-4-yl)phenyl)imidazolidine-2,4-dione, TFA]
20.1 to 200 nM	COc1cccc(C(CC(=O)O)N2CCN(c3ccc(-c4cn[nH]c4)c(OC)c3)C2=O)c1 (stereo not shown) [Example 19, 3-(3-(3-Methoxy-4-(1H-pyrazol-4-yl)phenyl)-2-oxoimidazolidin-1-yl)-3-(3-methoxyphenyl)propanoic Acid, TFA]
20.1 to 200 nM	COc1cc(N2CC(=O)N(Cc3ccccc3)C2=O)ccc1-c1cn[nH]c1 [Example 98, 3-Benzyl-1-(3-methoxy-4-(1H-pyrazol-4-yl)phenyl)imidazolidine-2,4-dione]
2.1 to 20 nM	COc1cccc(CN2C(=O)CN(c3ccc(-c4cn[nH]c4)c(OC)c3)C2=O)c1 [Example 105, 1-(3-methoxy-4-(1H-pyrazol-4-yl)phenyl)-3-(3-methoxy-benzyl)imidazolidine-2,4-dione]
200 to 2000 nM	O=C1N(Cc2cccc(C(F)(F)F)c2)CCN1c1ccc(-c2cn[nH]c2)cn1 [Example 240, 1-(5-(1H-pyrazol-4-yl)pyridin-2-yl)-3-(3-(trifluoromethyl)benzyl)imidazolidin-2-one]
200 to 2000 nM	CC(c1cccc(OCC2CC2)c1)n1ccn(-c2ccc(-c3cn[nH]c3)cc2)c1=O (single isomer, unassigned) [Example 356, 1-(4-(1H-pyrazol-4-yl)phenyl)-3-(1-(3-(cyclopropylmethoxy)phenyl)ethyl)-1H-imidazol-2(3H)-one]
200 to 2000 nM	O=C1N(Cc2cccc(F)c2)CCN1c1ccc(-c2ccnc(F)c2)cc1 [Example 51, 1-(3-fluorobenzyl)-3-(4-(2-fluoropyridin-4-yl)phenyl)imidazolidin-2-one]
200 to 2000 nM	COc1cccc(CN2CCN(c3ccc(-c4cn[nH]c4)c(C#N)c3)C2=O)c1 [Example 277, 5-(3-(3-methoxybenzyl)-2-oxoimidazolidin-1-yl)-2-(1H-pyrazol-4-yl)benzonitrile]
20.1 to 200 nM	CC(c1ccccc1)n1ccn(-c2ccc(-c3cn[nH]c3)cc2)c1=O (stereo not shown) [Example 332, 1-(4-(1H-pyrazol-4-yl)phenyl)-3-(1-phenylethyl)-1H-imidazol-2(3H)-one]
20.1 to 200 nM	COc1ccc(F)c(Cn2ccn(-c3ccc(-c4cn[nH]c4)cc3)c2=O)c1 [Example 338, 1-(4-(1H-pyrazol-4-yl)phenyl)-3-(2-fluoro-5-methoxybenzyl)-1H-imidazol-2(3H)-one]
200 to 2000 nM	COc1cc(C(C)n2ccn(-c3ccc(-c4cn[nH]c4)cc3)c2=O)ccc1F (single isomer, unassigned) [Example 392, 1-(4-(1H-pyrazol-4-yl)phenyl)-3-(1-(4-fluoro-3-methoxyphenyl)ethyl)-1H-imidazol-2(3H)-one]
20.1 to 200 nM	COc1cc(N2CC(=O)N(C(C)c3ccccc3)C2=O)ccc1-c1cn[nH]c1 (stereo not shown) [Example 106, 1-(3-methoxy-4-(1H-pyrazol-4-yl)phenyl)-3-(1-phenylethyl) imidazolidine-2,4-dione]
2.1 to 20 nM	COc1nc(N2CCN(Cc3cc(F)ccc3F)C2=O)ccc1-c1cn[nH]c1 [Example 246, 1-(2,5-difluorobenzyl)-3-(6-methoxy-5-(1H-pyrazol-4-yl)pyridin-2-yl)imidazolidin-2-one]
